From patent US5607926A, “Cephalosporin antibiotics” (Microcide Pharmaceuticals, Inc., priority 1995, dated 1997)
Converted amounts (≈) assume the structure as drawn. Counter-ions that a name gives are not always drawn. Like-named read-outs stand apart in the source and are kept apart here.

Legend:
Assay type in all cases: cell-based
[1] = test system: S. aureus ATCC 29213; assay: In vitro antibacterial evaluation, MIC by agar dilution, S. aureus ATCC 29213; conditions: Staphylococcus aureus, ATCC29213
Procedure: (§1) The compounds of the invention were evaluated against several β-lactamresistant bacteria strains by determining the minimum inhibitory concentration (MIC, μg/ml) of each compound with respect to each strain. The MIC, the lowest concentration of antibiotic which inhibits growth of the test organism, was determined by the agar dilution method.
(§2) To determine the MIC for bacterial isolates, the test compound was incorporated in a series of two-fold dilutions into liquified Mueller-Hinton agar. Upon solidification, a number of different bacterial strains were spot inoculated with a replicating device onto the agar surface. […] The procedures used in these studies have been standardized by the National Committee for Clinical Laboratory Standards (NCCLS), as per the NCCLS publication entitled METHODS FOR DILUTION ANTIMICROBIAL SUSCEPTIBILITY TESTS (1991), which is incorporated herein by reference.
(§3) Aliquots of antimicrobial agents were prepared in phosphate buffered saline (PBS) at pH 7.2. Tween 20 or DMSO was used as a solubilizing vehicle as needed. Standard methods of vortexing, sonicating and gentle heat were used to facilitate solubilizing the test agent. Typically, the concentration of the stock solution was 10× that of the highest drug concentration tested. A 1.28 mg/mL stock solution was used with a subsequent highest working concentration of 128 μg/mL. Serial two-fold dilutions were done through ≤0.25 μg/mL. Each drug level was tested in duplicate. Two-fold drug dilutions were done in sterile 50 mL tubes with a final drug volume of 5 mL. Upon the addition of 45 mL of molten agar, a 10-fold dilution resulted. Two, 25 mL. plates were then poured into 15×150 mm square Petri plates with grids and allowed to harden.
(§4) A control plate with a reference drug, either cefotaxime, vancomycin or imipenem, was used as the positive growth control. Stock concentrations of reference antibiotics were prepared and frozen at -80° C. Upon preparation, the control plates were sealed and stored in the refrigerator for up to 1 week prior to use; however, imipenem control plates had to be prepared just prior to use. All test plates were used within 24 hours of preparation.
(§5) Satisfactory results were obtained where the inoculum contained about 10^4 colony forming units (cfu) ±0.5 logs. Starting with pure cultures of the test isolates on agar plates, a few isolated colonies were transferred to a tube of nutrient broth and allowed to grow 4-6 hours at 35°-36° C. to reach log-phase growth. Dropwise addition of the broth culture to PBS was done to match a 0.5 McFarland turbidity standard equal to 10^8 cfu/mL. This was further diluted ten-fold in PBS to reach a working inoculum concentration of 10^7 cfu/mL. When 1 μL of the working inoculum was applied to the agar surface a concentration of about 10^4 cfu per spot was obtained.
(§6) Disposable sterile 1 μL loops were used to inoculate test plates, with each isolate in a designated grid on the agar plate. An alternate method of inoculation involved the use of a replica plater, a device with 48 steel pins allowing the simultaneous inoculation of multiple isolates. After the spots had dried, the plates were incubated at 35°-36° C. for 16-20 hours. Endpoints were assessed as the minimum inhibitory concentration (MIC) of antimicrobial agent.

[2] = test system: S. aureus 76 (Meth^R)(lac^+); assay: In vitro antibacterial evaluation, MIC by agar dilution, S. aureus 76; conditions: Staphylococcus aureus, read-out: MIC
Procedure: as §1, §2, §3, §4, §5, §6

[3] = test system: S. aureus Col8A (Meth^S)(lac^-); assay: In vitro antibacterial evaluation, MIC by agar dilution, S. aureus Col8A; conditions: Staphylococcus aureus
Procedure: as §1, §2, §3, §4, §5, §6
The novel agents of this invention are notable for their enhanced activity against S. aureus Col and Enterococci (E. faecium and E. faecalis). The S. aureus Col strain is a high-level PBP2a producer, whereas S. aureus Col 8A, its isogenic partner, lacks PBP2a. […] Thus, the compounds of the present invention are effective against PBP2a-producing bacteria.

[4] = test system: S. haemolyticus (Meth^R); assay: In vitro antibacterial evaluation, MIC by agar dilution, S. haemolyticus; conditions: Staphylococcus haemolyticus, read-out: MIC
Procedure: as §1, §2, §3, §4, §5, §6

[5] = test system: E. faecium ATCC 35667; assay: In vitro antibacterial evaluation, MIC by agar dilution, E. faecium ATCC 35667; conditions: Enterococcus faecium, ATCC35667, read-out: MIC
Procedure: as §1, §2, §3, §4, §5, §6

[6] = test system: E. faecalis ATCC 29212; assay: In vitro antibacterial evaluation, MIC by agar dilution, E. faecalis ATCC 29212; conditions: Enterococcus faecalis, ATCC29212; E. faecalis ATCC 29212; read-out: MIC
Procedure: as §1, §2, §3, §4, §5, §6

[7] = test system: E. coli ATCC 25922; assay: In vitro antibacterial evaluation, MIC by agar dilution, E. coli ATCC 25922; conditions: Escherichia coli, ATCC25922, read-out: MIC
Procedure: as §1, §2, §3, §4, §5, §6

[8] = test system: P. aeruginosa ATCC 27853; assay: In vitro antibacterial evaluation, MIC by agar dilution, P. aeruginosa ATCC 27853; conditions: Pseudomonas aeruginosa, ATCC27853, read-out: MIC
Procedure: as §1, §2, §3, §4, §5, §6

[9] = test system: S. epidermidis ATCC 31432; assay: In vitro antibacterial evaluation, MIC by agar dilution, S. epidermidis ATCC 31432; conditions: Staphylococcus epidermidis, ATCC31432; S. epidermidis ATCC 31432; read-out: MIC
Procedure: as §1, §2, §3, §4, §5, §6

[10] = S. aureus ATCC 29213, read-out: MIC

SMILES | MIC [1, 10] | MIC [2] | MIC [3] | MIC [4] | MIC [5] | MIC [6] | MIC [7] | MIC [8] | MIC [1] | MIC [9]
O=C(Cc1ccco1)N[C@@H]1C(=O)N2C(C(=O)O)=C(Sc3ccnn3-c3ccccc3)CS[C@H]12 [Cmpd 111, (7R)-7-[(2-furylacetyl)amino]-3-(1-N-phenylpyrazol-5-ylthio)-3-cephem-4-carboxylic acid] | 0.5 µg/mL (≈ 1.04 µM) | 16 µg/mL (≈ 33.2 µM) | 0.25 µg/mL (≈ 0.518 µM) | 32 µg/mL (≈ 66.3 µM) | 4 µg/mL (≈ 8.29 µM) | 4 µg/mL (≈ 8.29 µM) | > 32 µg/mL | > 32 µg/mL |  | 
N=C(N)SCc1ccccc1SC1=C(C(=O)O)N2C(=O)[C@@H](NC(=O)Cc3ccc(CN)cc3)[C@H]2SC1 [Cmpd 124, (7R)-7-[((4-aminomethylphenyl)acetyl)amino]-3-(2-isothiouroniummethylphenylthio)-3-cephem-4-carboxylate, trifluoroacetic acid salt] |  | 16 µg/mL | 0.25 µg/mL | 16 µg/mL | 1 µg/mL | 1 µg/mL | > 32 µg/mL | > 32 µg/mL | 0.25 µg/mL | 
N=C(NC1CC1)SCc1ccccc1SC1=C(C(=O)O)N2C(=O)[C@@H](NC(=O)Cc3ccccc3)[C@H]2SC1 [Cmpd 79, (7R)-7-[(Phenylacetyl)amino]-3-(2-N-cyclopropylisothiouroniummethylphenylthio)-3-cephem-4-carboxylate, inner salt] | 0.06 µg/mL | 8 µg/mL | 0.06 µg/mL | 32 µg/mL | 2 µg/mL | 1 µg/mL | > 32 µg/mL | > 32 µg/mL |  | 
CSCC(=O)N[C@@H]1C(=O)N2C(C(=O)O)=C(Sc3ccccc3CSC(=N)NN)CS[C@H]12 [Cmpd 133, (7R)-7-[(methylthioacetyl)amino]-3-(2-(N-amino)isothiouroniummethylphenylthio)-3-cephem-4-carboxylate, inner salt] |  | 8 µg/mL | 0.125 µg/mL | 16 µg/mL | 1 µg/mL | 1 µg/mL | > 32 µg/mL | > 32 µg/mL | 0.125 µg/mL | 
O=C(Cc1ccccc1)N[C@@H]1C(=O)N2C(C(=O)O)=C(Sc3cc(Cl)ccc3Cl)CS[C@H]12 [Cmpd 16, (7R)-7-[(Phenylacetyl)amino]-3-(2,5-dichlorophenylthio)-3-cephem-4-carboxylic acid] |  | 4 µg/mL (≈ 8.07 µM) |  | 16 µg/mL (≈ 32.3 µM) | 4 µg/mL (≈ 8.07 µM) |  | > 16 µg/mL |  |  | < 0.5 µg/mL
CC(=O)NC(=N)SCc1ccccc1SC1=C(C(=O)O)N2C(=O)[C@@H](NC(=O)Cc3ccccc3)[C@H]2SC1 [Cmpd 78, (7R)-7-[(Phenylacetyl)amino]-3-(2-N-acetylamidinothiomethylphenylthio)-3-cephem-4-carboxylic acid] |  | 16 µg/mL (≈ 28.7 µM) | 0.25 µg/mL (≈ 0.449 µM) | > 32 µg/mL | 4 µg/mL (≈ 7.19 µM) | 4 µg/mL (≈ 7.19 µM) | > 32 µg/mL | > 32 µg/mL | 0.25 µg/mL (≈ 0.449 µM) | 
N#Cc1ccccc1SC1=C(C(=O)O)N2C(=O)[C@@H](NC(=O)/C(=N\OC3CCCC3)c3csc(N)n3)[C@H]2SC1 [Cmpd 53, (7R)-7-[(Z)-2-(aminothiazol-4-yl)-2-(cyclopentyloxyimino)acetamido]-3-(2-cyanophenylthio)-3-cephem-4-carboxylic acid] | 1 µg/mL (≈ 1.75 µM) | 8 µg/mL (≈ 14 µM) | 1 µg/mL (≈ 1.75 µM) | 8 µg/mL (≈ 14 µM) | 8 µg/mL (≈ 14 µM) | 8 µg/mL (≈ 14 µM) | 1 µg/mL (≈ 1.75 µM) | 8 µg/mL (≈ 14 µM) |  | 
